Measurements taken from patent US9695155B2, “Herbicidal substituted pyrimidinyloxy benzene compounds” (E. I. DU PONT DE NEMOURS AND COMPANY, priority 2013, dated 2017).

Assays:
ragweed = assay: Test C postemergence; type: in vivo, Ambrosia elatior; conditions: for Plant response rating, Ragweed: scale 0 to 100 (0 no effect, 100 complete control)
Outline: (§1)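 Visual ratings on a 0–100 scale (100 = complete control) were made versus untreated controls after 13–15 greenhouse days. Chemicals in a surfactant-containing non-phytotoxic solvent were applied either preemergence to seeds in loam–sand soil or postemergence to 1- to 4-leaf plants 2–18 cm tall.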

wild oat = assay: Test C postemergence; type: in vivo, Avena fatua; conditions: for Plant response rating, Oat, Wild: scale 0 to 100 (0 no effect, 100 complete control)
Outline: as §1

yellow nutsedge = assay: Test C preemergence; type: in vivo, Cyperus esculentus; conditions: for Nutsedge, Yellow plant response rating: preemergence, scale 0 (no effect) to 100 (complete control)
Outline: as §1

rice = assay: Test B flooded paddy test; type: in vivo, Oryza sativa; conditions: Flood, 250 g ai/ha; 0 to 100 scale where 0 is no effect and 100 is complete control
Outline: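 Compound added straight to paddy water, with pots kept flooded 3 cm above soil, on plants grown to the 2-leaf stage. Visual scoring 0-100 (100 = complete control) against untreated controls after 13 to 15 greenhouse days.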

pigweed = assay: Test A preemergence; type: in vivo, Amaranthus retroflexus
Outline: (§2)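 Greenhouse pot test, loam/sand soil. Formulation: non-phytotoxic solvent mix plus surfactant. Pre: directed spray onto soil after sowing. Post: plants at 1–2 leaf, 2–10 cm. Rated visually vs untreated controls at ~10 d, 0 (no effect) to 100 (complete control).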

giant foxtail = assay: Test C preemergence; type: in vivo, Setaria faberii; conditions: for Foxtail, Giant plant response rating: preemergence, scale 0 (no effect) to 100 (complete control)
Outline: as §1

barnyardgrass = assay: Test A preemergence; type: in vivo, Echinochloa crus-galli
Outline: as §2

corn = assay: Test A preemergence; type: in vivo, Zea mays
Outline: as §2

lambsquarters = assay: Test C postemergence; type: in vivo, Chenopodium album; conditions: for Plant response rating, Lambsquarters: scale 0 to 100 (0 no effect, 100 complete control)
Outline: as §1

large (Lg) crabgrass [1] = assay: Test A preemergence; type: in vivo, Digitaria sanguinalis
Outline: as §2

Italian ryegrass = assay: Test C postemergence; type: in vivo, Lolium multiflorum; conditions: for Plant response rating, Ryegrass, Italian: scale 0 to 100 (0 no effect, 100 complete control)
Outline: as §1

morningglory = assay: Test C postemergence; type: in vivo, Ipomoea coccinea; conditions: for Plant response rating, Morningglory: scale 0 to 100 (0 no effect, 100 complete control)
Outline: as §1

large (Lg) crabgrass [2] = assay: Test A postemergence; type: in vivo, Digitaria sanguinalis
Outline: as §2

large (Lg) crabgrass [3] = assay: Test C postemergence; type: in vivo, Digitaria sanguinalis; conditions: for Plant response rating, Crabgrass, Large: scale 0 to 100 (0 no effect, 100 complete control)
Outline: as §1

oilseed rape = assay: Test C postemergence; type: in vivo, Brassica napus; conditions: for Plant response rating, Oilseed Rape: scale 0 to 100 (0 no effect, 100 complete control)
Text: Seeds of plant species selected from blackgrass (Alopecurus myosuroides), Italian ryegrass (Lolium multiflorum), wheat, winter (winter wheat, Triticum aestivum), galium (catchweed bedstraw, Galium aparine), corn (Zea mays), large (Lg) crabgrass (Digitaria sanguinalis), giant foxtail (Setaria faberii), johnsongrass (Sorghum halepense), lambsquarters (Chenopodium album), morningglory (Ipomoea coccinea), yellow nutsedge (Cyperus esculentus), pigweed (Amaranthus retroflexus), ragweed (common ragweed, Ambrosia elatior), soybean (Glycine max), barnyardgrass (Echinochloa crus-galli), oilseed rape (Brassica napus), waterhemp (common waterhemp, Amaranthus rudis), kochia (Kochia scoparia), wild oat (Avena fatua), surinam grass (Brachiaria decumbens), foxtail, green (green foxtail, Setaria viridis), goosegrass (Eleusine indica), bromegrass, downy (downy bromegrass, Bromus tectorum), nightshade (eastern black nightshade, Solanum ptycanthum), cocklebur (common cocklebur, Xanthium strumarium), cupgrass, woolly (woolly cupgrass, Eriochloa villosa), bermudagrass (Cynodon dactylon), sunflower, (common oilseed sunflower, Helianthus annuus), Russian thistle (Salsola kali), and velvetleaf (Abutilon theophrasti) were planted into a blend of loam soil and sand and treated preemergence with test chemicals formulated in a non-phytotoxic solvent mixture which included a surfactant.
At the same time, plants selected from these crop and weed species and also barley, winter (winter barley, Hordeum vulgare), windgrass (Apera spica-venti), chickweed (common chickweed, Stellaria media), deadnettle (henbit deadnettle, Lamium amplexicaule), and canarygrass (littleseed canarygrass, Phalaris minor) were planted in pots containing Redi-Earth® planting medium (Scotts Company, 14111 Scottslawn Road, Marysville, Ohio 43041) comprising spaghnum peat moss, vermiculite, wetting agent and starter nutrients and treated with postemergence applications of test chemicals formulated in the same manner. Plants ranged in height from 2 to 18 cm (1- to 4-leaf stage) for postemergence treatments. Treated plants and controls were maintained in a greenhouse for 13 to 15 days, after which time all species were compared to controls and visually evaluated. Plant response ratings, summarized in Table C, are based on a scale of 0 to 100 where 0 is no effect and 100 is complete control. A dash (-) response means no test result.

[4] = Postemergence, 31 g ai/ha, 13 to 15 days
[5] = Preemergence, 31 g ai/ha, scale 0 to 100, 0 no effect, 100 complete control
[6] = 125 g ai/ha, 0 to 100 scale where 0 is no effect and 100 is complete control
[7] = 500 g ai/ha, 0 to 100 scale, 0 no effect, 100 complete control, approx. 10 days
[8] = 16 g ai/ha, postemergence, 0 is no effect, 100 is complete control
[9] = 125 g ai/ha, postemergence, visual rating

SMILES: FC(F)(F)c1cnn(-c2ccccc2Oc2ncc(Cl)cn2)c1 [Compound 16]
- Plant response rating (0 to 100), Ragweed (ragweed; 125 g ai/ha, postemergence): 40
- Plant response rating (0 to 100), Ragweed (ragweed; 250 g ai/ha, postemergence): 90
- Plant response rating, Ragweed (ragweed; [4]): 15
- Plant response rating, Ragweed (ragweed; Postemergence, 62 g ai/ha): 30
- Plant response rating (0 to 100), Oat, Wild (wild oat; 125 g ai/ha, postemergence): 35
- Plant response rating (0 to 100), Oat, Wild (wild oat; 250 g ai/ha, postemergence): 45
- Plant response rating, Oat, Wild (wild oat; [4]): 25
- Plant response rating, Oat, Wild (wild oat; Postemergence, 62 g ai/ha): 35
- Nutsedge, Yellow plant response rating (yellow nutsedge; 62 g ai/ha): 25
- Nutsedge, Yellow plant response rating (yellow nutsedge; 125 g ai/ha): 65
- Nutsedge, Yellow plant response rating (yellow nutsedge; 250 g ai/ha): 65
- Plant response rating, Nutsedge, Yellow (yellow nutsedge; [5]): 15
- Plant response rating, Rice (rice): 40
- Pigweed plant response rating (pigweed; [6]): 100
- Pigweed plant response rating (pigweed; [7]): 100
- Foxtail, Giant plant response rating (giant foxtail; 62 g ai/ha): 98
- Foxtail, Giant plant response rating (giant foxtail; 125 g ai/ha): 100
- Foxtail, Giant plant response rating (giant foxtail; 250 g ai/ha): 100
- Plant response rating, Foxtail, Giant (giant foxtail; [5]): 95
- Barnyardgrass plant response rating (barnyardgrass; [6]): 100
- Barnyardgrass plant response rating (barnyardgrass; [7]): 100
- Corn plant response rating (corn; [6]): 10
- Corn plant response rating (corn; [7]): 30
- Plant response rating (0 to 100), Lambsquarters (lambsquarters; 125 g ai/ha, postemergence): 100
- Plant response rating (0 to 100), Lambsquarters (lambsquarters; 250 g ai/ha, postemergence): 100
- Plant response rating, Lambsquarters (lambsquarters; [4]): 75
- Plant response rating, Lambsquarters (lambsquarters; Postemergence, 62 g ai/ha): 100
- Crabgrass, Large plant response rating (large (Lg) crabgrass [1]; [6]): 100
- Crabgrass, Large plant response rating (large (Lg) crabgrass [1]; [7]): 100
- Plant response rating (0 to 100), Ryegrass, Italian (Italian ryegrass; 125 g ai/ha, postemergence): 20
- Plant response rating (0 to 100), Ryegrass, Italian (Italian ryegrass; 250 g ai/ha, postemergence): 20
- Plant response rating, Ryegrass, Italian (Italian ryegrass; [4]): 10
- Plant response rating, Ryegrass, Italian (Italian ryegrass; Postemergence, 62 g ai/ha): 15
- Plant response rating (0 to 100), Morningglory (morningglory; 125 g ai/ha, postemergence): 80
- Plant response rating (0 to 100), Morningglory (morningglory; 250 g ai/ha, postemergence): 85
- Plant response rating, Morningglory (morningglory; [4]): 65
- Plant response rating, Morningglory (morningglory; Postemergence, 62 g ai/ha): 80
- Plant response rating, Crabgrass, Large (large (Lg) crabgrass [2]; [6]): 80
- Plant response rating, Crabgrass, Large (large (Lg) crabgrass [2]; 500 g ai/ha, 0 to 100 scale, 0 no effect, 100 complete control): 100
- Plant response rating (0 to 100), Crabgrass, Large (large (Lg) crabgrass [3]; 125 g ai/ha, postemergence): 30
- Plant response rating (0 to 100), Crabgrass, Large (large (Lg) crabgrass [3]; 250 g ai/ha, postemergence): 85
- Plant response rating, Crabgrass, Large (large (Lg) crabgrass [3]; [4]): 10
- Plant response rating, Crabgrass, Large (large (Lg) crabgrass [3]; Postemergence, 62 g ai/ha): 20

SMILES: FCc1cccc(Oc2ncc(Br)cn2)c1-n1cc(C(F)(F)F)cn1 [Compound 120]
- Plant response rating (0 to 100), Ragweed (ragweed; [8]): 10
- Plant response rating, Ragweed (ragweed; [9]): 60
- Plant response rating, Ragweed (ragweed; Postemergence, 62 g ai/ha): 25
- Plant response rating (0 to 100), Oat, Wild (wild oat; [8]): 0
- Plant response rating, Oat, Wild (wild oat; [9]): 5
- Plant response rating, Oat, Wild (wild oat; Postemergence, 62 g ai/ha): 5
- Plant response rating, Rice (rice): 0
- Pigweed plant response rating (0 to 100 scale) (pigweed; 31 g ai/ha): 100
- Plant response rating, Pigweed (pigweed; [6]): 100
- Plant response rating (0 to 100), Oilseed Rape (oilseed rape; [8]): 5
- Plant response rating, Oilseed Rape (oilseed rape; [9]): 15
- Plant response rating, Oilseed Rape (oilseed rape; Postemergence, 62 g ai/ha): 5
- Barnyardgrass plant response rating (0 to 100 scale) (barnyardgrass; 31 g ai/ha): 20
- Plant response rating, Barnyardgrass (barnyardgrass; [6]): 70
- Plant response rating (0 to 100), Lambsquarters (lambsquarters; [8]): 55
- Plant response rating, Lambsquarters (lambsquarters; [9]): 85
- Plant response rating, Lambsquarters (lambsquarters; Postemergence, 62 g ai/ha): 70
- Plant response rating (0 to 100), Ryegrass, Italian (Italian ryegrass; [8]): 0
- Plant response rating, Ryegrass, Italian (Italian ryegrass; [9]): 5
- Plant response rating, Ryegrass, Italian (Italian ryegrass; Postemergence, 62 g ai/ha): 0
- Plant response rating (0 to 100), Morningglory (morningglory; [8]): 20
- Plant response rating, Morningglory (morningglory; [9]): 80
- Plant response rating, Morningglory (morningglory; Postemergence, 62 g ai/ha): 35
- Plant response rating (0 to 100), Crabgrass, Large (large (Lg) crabgrass [3]; [8]): 5
- Plant response rating, Crabgrass, Large (large (Lg) crabgrass [3]; [9]): 10
- Plant response rating, Crabgrass, Large (large (Lg) crabgrass [3]; Postemergence, 62 g ai/ha): 10
